In paper PMC3504386 (Chemmedchem, 2010):

Target: T1, CTP synthetase (CTPS) (Trypanosoma brucei, UniProt Q4GZ95)
T1 construct: gene TB927.1.1240
Assay: coupled spectrophotometric enzyme assay (pyruvate kinase/lactate dehydrogenase), […] min pre-incubation on ice
Type: biochemical

T1 sequence (Q4GZ95 entry or part of it): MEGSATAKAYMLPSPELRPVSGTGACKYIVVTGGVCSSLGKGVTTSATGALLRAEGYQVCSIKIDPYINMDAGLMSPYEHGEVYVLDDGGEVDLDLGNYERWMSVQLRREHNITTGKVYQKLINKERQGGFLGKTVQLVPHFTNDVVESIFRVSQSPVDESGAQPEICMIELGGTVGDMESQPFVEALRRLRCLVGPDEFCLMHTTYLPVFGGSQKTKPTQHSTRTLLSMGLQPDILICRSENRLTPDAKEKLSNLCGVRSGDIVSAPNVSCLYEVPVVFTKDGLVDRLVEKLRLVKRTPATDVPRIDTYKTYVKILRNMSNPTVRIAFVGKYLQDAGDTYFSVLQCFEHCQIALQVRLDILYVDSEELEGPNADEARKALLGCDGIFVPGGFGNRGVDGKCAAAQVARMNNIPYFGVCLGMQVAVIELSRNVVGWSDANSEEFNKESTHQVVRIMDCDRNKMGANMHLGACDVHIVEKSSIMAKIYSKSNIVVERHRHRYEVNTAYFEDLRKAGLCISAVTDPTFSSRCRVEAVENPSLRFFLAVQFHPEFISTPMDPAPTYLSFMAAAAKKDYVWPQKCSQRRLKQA

Compound	IC50 [nM]
N[C@H](C(=O)O)[C@@H]1CC(Br)=NO1 [compound 2, (αS,5S)-α-amino-3-bromo-4,5-dihydroisoxazol-5-yl acetic acid]	98 ± 10
N[C@H](C(=O)O)[C@@H]1CC(Cl)=NO1 [compound 1, Acivicin]	320 ± 25
